According to the supplement of paper PMC5908809:

Columns and labels:
[1] = tested on: SNK-6 (IL-2 2.5 ng/mL); assay: percent inhibition of viability; higher = more inhibition; settings: 72 h
[2] = tested on: normal primary NK cells, pool 1 (3 donors) (IL-2 2.5 ng/mL); assay: as above; settings: 72 h
[3] = tested on: KAI3 (IL-2 2.5 ng/mL); assay: as above; settings: 72 h
[4] = tested on: NK-YS (IL-2 2.5 ng/mL); assay: as above; settings: 72 h
[5] = tested on: NKL (IL-2 2.5 ng/mL); assay: as above; settings: 72 h
[6] = tested on: DERL-7 (IL-2 2.5 ng/mL); assay: as above; settings: 72 h
[7] = tested on: NK-92 (IL-2 2.5 ng/mL); assay: as above; settings: 72 h
[8] = tested on: normal primary NK cells, pool 1 (3 donors), resting (IL-2 0 ng/mL); assay: as above; settings: 72 h
[9] = tested on: IMC-1 (IL-2 20 ng/mL); assay: as above; settings: 72 h
[10] = tested on: normal primary NK cells, pool 2 (3 donors) (IL-2 2.5 ng/mL); assay: as above; settings: 72 h
[11] = tested on: normal primary NK cells, pool 3 (3 donors) (IL-2 2.5 ng/mL); assay: as above; settings: 72 h
[12] = tested on: YT (IL-2 2.5 ng/mL); assay: as above; settings: 72 h
[13] = tested on: KHYG-1 (IL-2 2.5 ng/mL); assay: as above; settings: 72 h
[14] = tested on: normal NK cells expanded with K562-aAPC; assay: drug sensitivity score (DSS) (DSS units); higher = more sensitive; extreme values may be limits of the assay; settings: 72 h; IL-2 2.5 ng/mL
Method: (§1)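 Drug sensitivity and resistance testing on K562-aAPC-expanded normal NK cells: 5 concentrations (10-fold steps over a 10,000-fold range), 72 h at 37 °C, viability by CellTiter-Glo normalised to DMSO and benzethonium chloride controls; DSS from the fitted curve.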

[15] = tested on: SNK-6 (IL-2 2.5 ng/mL); assay: as above; settings: 72 h
[16] = tested on: normal primary NK cells, pool 1 (3 donors) (IL-2 2.5 ng/mL); assay: as above; settings: 72 h
[17] = tested on: KAI3 (IL-2 2.5 ng/mL); assay: as above; settings: 72 h
[18] = tested on: NK-YS (IL-2 2.5 ng/mL); assay: as above; settings: 72 h
[19] = tested on: NKL (IL-2 2.5 ng/mL); assay: as above; settings: 72 h
[20] = tested on: DERL-7 (IL-2 2.5 ng/mL); assay: as above; settings: 72 h
[21] = tested on: NK-92 (IL-2 2.5 ng/mL); assay: as above; settings: 72 h
[22] = tested on: normal primary NK cells, pool 1 (3 donors), resting (IL-2 0 ng/mL); assay: as above; settings: 72 h
[23] = tested on: IMC-1 (IL-2 20 ng/mL); assay: as above; settings: 72 h
[24] = tested on: normal primary NK cells, pool 2 (3 donors) (IL-2 2.5 ng/mL); assay: as above; settings: 72 h
[25] = tested on: normal primary NK cells, pool 3 (3 donors) (IL-2 2.5 ng/mL); assay: as above; settings: 72 h
[26] = tested on: YT (IL-2 2.5 ng/mL); assay: as above; settings: 72 h
[27] = tested on: KHYG-1 (IL-2 2.5 ng/mL); assay: as above; settings: 72 h
[28] = tested on: normal NK cells expanded with K562-aAPC; assay: percent inhibition of viability; higher = more inhibition; settings: 72 h, IL-2 2.5 ng/mL
Method: as §1

CCC(C)(C)C(=O)O[C@H]1C[C@@H](C)C=C2C=C[C@H](C)[C@H](CC[C@@H]3C[C@@H](O)CC(=O)O3)[C@H]21 [Simvastatin] (max concentration tested 10000 nM)
percent inhibition of viability [%]
Settings	1 nM	10 nM	100 nM	1000 nM	10000 nM
[1]	4.57	-0.33	6.13	-5.3	1.07
[2]	-7.84	9.33	-16.5	-3.95	8.72
[3]	3.02	-8.09	-7.7	-3.05	22.5
[4]	-1.72	2.03	2	6.51	68.6
[5]	-16.6	-8.92	0.63	6	68.9
[6]	-1.97	-3.51	4.88	4.07	10.3
[7]	-8.62	-9.55	2.91	-5.14	-1.54
[8]	-0.52	-1.88	-12.8	-6.51	13.3
[9]	-0.2	-3.36	3.54	3.84	38.1
[10]	-9.03	-7.28	-6.35	14.3	19.6
[11]	-9.67	-10.8	-5.99	4.87	2.32
[12]	0.42	-0.1	0.72	2.62	23.9
[13]	2.27	-0.82	3.03	5.63	11.2
[28]	0.17	-4.47	-1.19	-2.06	6.89

Settings	drug sensitivity score
[14]	0
[15]	0
[16]	0
[17]	0.61
[18]	4.82
[19]	4.74
[20]	0
[21]	0
[22]	0.04
[23]	2.48
[24]	1.89
[25]	0
[26]	1.26
[27]	0

Cc1cc2c(F)c(Oc3ncnn4cc(OC[C@@H](C)O)c(C)c34)ccc2[nH]1 [Brivanib] (max concentration tested 1000 nM)
percent inhibition of viability [%]
Settings	0.1 nM	1 nM	10 nM	100 nM	1000 nM
[1]	5.84	-0.07	3.56	8.94	4.87
[2]	-8.41	-6.09	4.52	-3.63	-4.56
[3]	-2.86	1.99	-5.53	-0.99	-2.38
[4]	-2	-5.08	-6.17	0.88	13.4
[5]	-11.2	-9.83	-21.6	-12.1	-10.2
[6]	0.94	7.48	-2.36	3.07	-1.62
[7]	-10.1	-9.6	-3.98	-10.2	-5.2
[8]	-11.7	-6.81	7.63	-9.3	-5.72
[9]	-8.23	-2.37	-10.1	-3.91	-8.67
[10]	-6.73	-10	-9.37	-10.3	-8.25
[11]	-9.42	-10.1	-12.4	-11	-7.07
[12]	-2.1	-2.63	-1.47	-0.95	-3.56
[13]	-4.66	-2.28	-3.77	-3.68	-5.25
[28]	0.76	-1.44	1.84	-3.64	-2.22

Settings	drug sensitivity score
[14]	0
[15]	0
[16]	0
[17]	0
[18]	0.18
[19]	0
[20]	0
[21]	0
[22]	0
[23]	0
[24]	0
[25]	0
[26]	0
[27]	0

CCC1(c2ccc(N)cc2)CCC(=O)NC1=O (configuration not stated) [Aminoglutethimide] (max concentration tested 10000 nM)
percent inhibition of viability [%]
Settings	1 nM	10 nM	100 nM	1000 nM	10000 nM
[1]	21.1	17.4	10.2	-16	-32.7
[2]	-5.3	-8.94	-8.74	-4.93	1.17
[3]	14	10.4	8.76	9.73	9.01
[4]	4.81	6.87	2.26	7.56	4.69
[5]	28.3	0.83	18.7	-2.97	15.1
[6]	6.92	1.97	7.28	-2.32	7.58
[7]	7.96	0.54	12.4	0.81	11.1
[8]	-3.93	-9.4	-1.78	-7.06	21.1
[9]	1.84	4.93	3.29	2.36	3.88
[10]	3.13	3.88	0.19	1.2	8.45
[11]	4.12	-2.09	1.89	3.88	6.3
[12]	13.1	2.62	11.4	2.84	12.5
[13]	16.4	0	11	1.44	15.2
[28]	1.05	-2.97	-1	-2.85	0.83

Settings	drug sensitivity score
[14]	0
[15]	0
[16]	0
[17]	0
[18]	0
[19]	0.06
[20]	0
[21]	0
[22]	0.43
[23]	0
[24]	0
[25]	0
[26]	0
[27]	0
